Experimental data from patent EP1497262B1, “ACYL-4-CARBOXYPHENYLUREA DERIVATIVES, METHOD FOR PRODUCTION AND USE THEREOF” (Sanofi-Aventis Deutschland GmbH, priority 2002, dated 2003).

Molecular target: T1, Humane Glykogenphosphorylase a (Homo sapiens, UniProt P06737)
T1 sequence (P06737 1-847): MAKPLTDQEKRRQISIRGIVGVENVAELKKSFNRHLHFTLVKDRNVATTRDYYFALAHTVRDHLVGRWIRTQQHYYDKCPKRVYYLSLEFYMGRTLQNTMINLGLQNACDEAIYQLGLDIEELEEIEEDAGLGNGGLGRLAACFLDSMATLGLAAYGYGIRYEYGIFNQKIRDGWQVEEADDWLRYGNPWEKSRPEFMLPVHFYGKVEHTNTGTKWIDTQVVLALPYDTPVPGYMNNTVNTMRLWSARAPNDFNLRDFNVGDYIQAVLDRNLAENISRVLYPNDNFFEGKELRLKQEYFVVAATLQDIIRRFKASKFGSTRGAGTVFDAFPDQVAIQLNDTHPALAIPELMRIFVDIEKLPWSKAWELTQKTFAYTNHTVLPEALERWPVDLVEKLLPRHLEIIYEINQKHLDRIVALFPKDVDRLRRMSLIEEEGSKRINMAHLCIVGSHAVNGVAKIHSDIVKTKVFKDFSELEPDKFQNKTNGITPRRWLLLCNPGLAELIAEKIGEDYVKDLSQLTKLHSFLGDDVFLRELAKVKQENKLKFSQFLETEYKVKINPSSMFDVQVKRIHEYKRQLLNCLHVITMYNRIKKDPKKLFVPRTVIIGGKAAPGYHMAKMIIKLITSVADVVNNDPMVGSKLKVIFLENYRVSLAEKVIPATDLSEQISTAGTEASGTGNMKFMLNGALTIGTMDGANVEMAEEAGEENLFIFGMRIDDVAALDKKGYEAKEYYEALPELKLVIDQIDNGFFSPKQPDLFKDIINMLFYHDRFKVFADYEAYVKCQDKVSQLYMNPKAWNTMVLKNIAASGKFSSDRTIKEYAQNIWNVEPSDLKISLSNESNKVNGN
Experiment: Glycogen phosphorylase a activity test (reverse direction, release of inorganic phosphate)
Assay type: biochemical
Settings: 10 µM test substance, in vitro, 40 min at room temperature, absorbance at 820 nm; for inhibition at 10 µM: read-out: % Inhibition bei 10 µM
Method: Glykogenphosphorylase a Aktivitätstest
Der Effekt von Verbindungen auf die Aktivität der aktiven Form der Glykogenphosphorylase (GPa) wurde in der umgekehrten Richtung, durch Verfolgen der Glykogensynthese aus Glukose-1-Phosphat an Hand der Bestimmung der Freisetzung von anorganischem Phosphat, gemessen.
Prüfsubstanzen wurden als 10 mM Lösung in DMSO zubereitet und auf 50 µM mit Pufferlösung T verdünnt. Zu 10 µl dieser Lösung wurden 10 µl 37,5 mM Glukose, gelöst in Pufferlösung T und 5 mg/mL Glykogen, sowie 10 µl einer Lösung von humaner Glykogenphosphorylase a ([…]) und 20 µl Glukose-1-Phosphat, 2,5 mM zugegeben. Der basale Wert der Glykogenphosphorylase a Aktivität in Abwesenheit von Prüfsubstanz wurde durch Zugabe von 10 µl Pufferlösung T (0,1 % DMSO) bestimmt. […] Zur Bestimmung der Hintergrundsabsorption wurde in einem separaten Ansatz die Stop-Lösung unmittelbar nach Zugabe der Glukose-1-Phosphatlösung zugegeben.
Dieser Test wurde mit einer Konzentrationen von 10 µM der Prüfsubstanz durchgeführt, um die jeweilige Hemmung der Glykogenphosphorylase a in vitro durch die Prüfsubstanz zu bestimmen. Tabelle 2: Biologische Aktivität

Row | SMILES | inhibition at 10 µM [%] | % Inhibition bei 10 µM [%]
1 | CCOC(=O)c1ccc(NC(=O)NC(=O)c2c(F)cccc2F)cc1 [Vergleichsbeispiel A, reference compound] | 3 | –
2 | NC(CO)(CO)CO.O=C(NC(=O)c1cc(F)c(F)cc1Cl)Nc1ccc(C(=O)O)cc1OC(F)(F)F [compound 49, 4-[3-(2-Chlor-4,5-difluor-benzoyl)-ureido]-3-trifluoromethoxy-benzoesäure TRIS-Salz] | – | 103

Second part, led by results:

Row | inhibition at 10 µM [%] | SMILES | % Inhibition bei 10 µM [%]
3 | 71 | O=C(NC(=O)c1ccccc1Cl)Nc1ccc(C(=O)O)cc1[N+](=O)[O-] [compound 1] | –
4 | 85 | O=C(NC(=O)c1ccc(Cl)cc1Cl)Nc1ccc(C(=O)O)cc1[N+](=O)[O-] [compound 2] | –
5 | 80 | O=C(NC(=O)c1ccc(Cl)cc1Cl)Nc1ccc(C(=O)O)cc1O [compound 5] | –
